Data: patent EP4722207A1, “OXOISOINDOLINYL-SUBSTITUTED TETRAHYDROPYRIMIDINEDIONE DERIVATIVE AND USE THEREOF” (Gluetacs Therapeutics (Shanghai) Co., Ltd., priority 2023, dated 2024)

Columns and labels:
WEE1 = molecular target: T1, WEE1 (Homo sapiens, UniProt P30291+Q96SW2); assay: Western-blot assay, substrate protein degradation in hPBMCs: WEE1; assay type: cell-based; conditions: compounds at 50 nM and 500 nM, 24 hours
T1 construct: effects of the compounds of the present disclosure on the expression of target proteins in cells; endogenous in cells; host or cells: human PBMCs (hPBMCs)

CK1α = molecular target: T2, CK1α (Homo sapiens, UniProt P48729+Q96SW2); assay: Western-blot assay, substrate protein degradation in hPBMCs: CK1α; assay type: cell-based; conditions: compounds at 50 nM and 500 nM, 24 hours
T2 construct: effects of the compounds of the present disclosure on the expression of target proteins in cells; endogenous in cells; host or cells: human PBMCs (hPBMCs)

GSPT1 = molecular target: T3, GSPT1 (Homo sapiens, UniProt P15170+Q96SW2); assay: Western-blot assay, substrate protein degradation in hPBMCs: GSPT1; assay type: cell-based; conditions: compounds at 50 nM and 500 nM, 24 hours
T3 construct: effects of the compounds of the present disclosure on the expression of target proteins in cells; endogenous in cells; host or cells: human PBMCs (hPBMCs)

IKZF2 = molecular target: T4, IKZF2 (Homo sapiens, UniProt Q96SW2+Q9UKS7); assay: Western-blot assay, substrate protein degradation in hPBMCs: IKZF2; assay type: cell-based; conditions: compounds at 50 nM and 500 nM, 24 hours
T4 construct: effects of the compounds of the present disclosure on the expression of target proteins in cells; endogenous in cells; host or cells: human PBMCs (hPBMCs)

IKZF3 = molecular target: T5, IKZF3 (Homo sapiens, UniProt Q96SW2+Q9UKT9); assay: Western-blot assay, substrate protein degradation in hPBMCs: IKZF3; assay type: cell-based; conditions: compounds at 50 nM and 500 nM, 24 hours
T5 construct: effects of the compounds of the present disclosure on the expression of target proteins in cells; endogenous in cells; host or cells: human PBMCs (hPBMCs)

IKZF1 = molecular target: T6, IKZF1 (Homo sapiens, UniProt Q13422+Q96SW2); assay: Western-blot assay, substrate protein degradation in hPBMCs: IKZF1; assay type: cell-based; conditions: compounds at 50 nM and 500 nM, 24 hours
T6 construct: effects of the compounds of the present disclosure on the expression of target proteins in cells; endogenous in cells; host or cells: human PBMCs (hPBMCs)

MM.1S = assay: Cell viability assay (CellTiter-Meiluncell Luminescent), tumor cell proliferation, MM.1S; conditions: Homo sapiens, MM1.S, 96 h, read-out: inhibitory activity (IC50, nM) against tumor cells proliferation, MM.1S
MV-4-11 = assay: Cell viability assay (CellTiter-Meiluncell Luminescent), tumor cell proliferation, MV-4-11; conditions: Homo sapiens, MV4-11, 96 h; for inhibition at 0.01 µM: read-out: Inhibition Rate at 10 nM (%); for inhibition at 0.5 µM: read-out: Inhibition Rate at 500 nM (%)
Procedure: (§1) The tumor cells used herein were cultured in a cell culture medium listed in table 2 at 37°C in an incubator with 5% CO2. Prior to experimentation, all cell lines used were correctly identified by STR profiling, and tested negative for mycoplasma contamination using a mycoplasma detection kit through routine screenings.
(§2) On the following day, the test compounds of the present disclosure were subjected to serial dilution. […] Subsequently, 0.5 µL of the test compound dilution was transferred into the 96-well plate containing the cells, with each well containing 100 µL of cell culture medium. […] Into the 96-well plate, the diluted test compounds and corresponding detection reagents were added, resulting in final test compound concentrations of 500 nM and 10 nM, respectively. The experimental procedure is described below using the diluted 2 µM test compound as an example.
(§3) After the cells were treated with the compounds of the present disclosure for a specified period, the cell viability assay reagent was added to the culture medium according to the kit's instructions to determine cell viability. […] All controls were treated using the same procedure as the compounds of the present disclosure. The growth inhibition curves for the compounds of the present disclosure were plotted using Prism GraphPad software, and the IC50 values were calculated therefrom.

MDA-MB-231 = assay: Cell viability assay (CellTiter-Meiluncell Luminescent), tumor cell proliferation, MDA-MB-231; conditions: Homo sapiens, MDA-MB-231, 96 h; for inhibition at 0.01 µM: read-out: Inhibition Rate at 10 nM (%); for inhibition at 0.5 µM: read-out: Inhibition Rate at 500 nM (%)
H292 = assay: Cell viability assay (CellTiter-Meiluncell Luminescent), tumor cell proliferation, H292; conditions: Homo sapiens, NCI-H292, 96 h; for inhibition at 0.01 µM: read-out: Inhibition Rate at 10 nM (%); for inhibition at 0.5 µM: read-out: Inhibition Rate at 500 nM (%)
Procedure: as §1, §2, §3

T1 sequence (P30291 whole entry): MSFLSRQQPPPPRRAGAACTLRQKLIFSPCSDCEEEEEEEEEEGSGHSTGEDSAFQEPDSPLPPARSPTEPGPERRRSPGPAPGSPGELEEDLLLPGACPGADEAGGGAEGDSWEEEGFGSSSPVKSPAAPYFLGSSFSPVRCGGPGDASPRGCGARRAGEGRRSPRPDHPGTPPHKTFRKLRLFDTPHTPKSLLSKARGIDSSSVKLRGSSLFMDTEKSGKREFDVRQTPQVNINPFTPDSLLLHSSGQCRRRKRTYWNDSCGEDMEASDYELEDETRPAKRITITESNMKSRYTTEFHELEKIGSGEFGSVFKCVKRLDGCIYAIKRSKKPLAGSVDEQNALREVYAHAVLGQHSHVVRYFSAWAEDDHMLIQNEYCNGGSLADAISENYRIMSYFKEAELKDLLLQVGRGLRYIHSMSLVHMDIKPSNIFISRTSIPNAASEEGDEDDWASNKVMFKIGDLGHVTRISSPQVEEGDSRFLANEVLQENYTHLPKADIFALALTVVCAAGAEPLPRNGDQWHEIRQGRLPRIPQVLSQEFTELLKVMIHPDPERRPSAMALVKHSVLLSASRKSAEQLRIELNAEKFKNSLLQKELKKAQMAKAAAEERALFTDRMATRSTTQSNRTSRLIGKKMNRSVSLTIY
T1 sequence (Q96SW2 whole entry): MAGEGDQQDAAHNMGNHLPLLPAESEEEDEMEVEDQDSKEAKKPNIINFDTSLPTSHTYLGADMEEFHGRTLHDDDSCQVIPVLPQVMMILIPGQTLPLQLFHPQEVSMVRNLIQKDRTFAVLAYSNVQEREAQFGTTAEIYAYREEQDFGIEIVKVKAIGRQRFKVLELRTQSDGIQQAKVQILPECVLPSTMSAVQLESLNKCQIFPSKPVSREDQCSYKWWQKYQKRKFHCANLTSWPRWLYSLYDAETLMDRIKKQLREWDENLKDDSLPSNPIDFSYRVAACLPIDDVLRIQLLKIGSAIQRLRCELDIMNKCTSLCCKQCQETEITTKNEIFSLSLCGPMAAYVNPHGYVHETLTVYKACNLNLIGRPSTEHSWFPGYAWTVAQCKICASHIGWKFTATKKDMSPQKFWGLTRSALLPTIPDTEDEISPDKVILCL
T1 sequence (Q16531 whole entry partner): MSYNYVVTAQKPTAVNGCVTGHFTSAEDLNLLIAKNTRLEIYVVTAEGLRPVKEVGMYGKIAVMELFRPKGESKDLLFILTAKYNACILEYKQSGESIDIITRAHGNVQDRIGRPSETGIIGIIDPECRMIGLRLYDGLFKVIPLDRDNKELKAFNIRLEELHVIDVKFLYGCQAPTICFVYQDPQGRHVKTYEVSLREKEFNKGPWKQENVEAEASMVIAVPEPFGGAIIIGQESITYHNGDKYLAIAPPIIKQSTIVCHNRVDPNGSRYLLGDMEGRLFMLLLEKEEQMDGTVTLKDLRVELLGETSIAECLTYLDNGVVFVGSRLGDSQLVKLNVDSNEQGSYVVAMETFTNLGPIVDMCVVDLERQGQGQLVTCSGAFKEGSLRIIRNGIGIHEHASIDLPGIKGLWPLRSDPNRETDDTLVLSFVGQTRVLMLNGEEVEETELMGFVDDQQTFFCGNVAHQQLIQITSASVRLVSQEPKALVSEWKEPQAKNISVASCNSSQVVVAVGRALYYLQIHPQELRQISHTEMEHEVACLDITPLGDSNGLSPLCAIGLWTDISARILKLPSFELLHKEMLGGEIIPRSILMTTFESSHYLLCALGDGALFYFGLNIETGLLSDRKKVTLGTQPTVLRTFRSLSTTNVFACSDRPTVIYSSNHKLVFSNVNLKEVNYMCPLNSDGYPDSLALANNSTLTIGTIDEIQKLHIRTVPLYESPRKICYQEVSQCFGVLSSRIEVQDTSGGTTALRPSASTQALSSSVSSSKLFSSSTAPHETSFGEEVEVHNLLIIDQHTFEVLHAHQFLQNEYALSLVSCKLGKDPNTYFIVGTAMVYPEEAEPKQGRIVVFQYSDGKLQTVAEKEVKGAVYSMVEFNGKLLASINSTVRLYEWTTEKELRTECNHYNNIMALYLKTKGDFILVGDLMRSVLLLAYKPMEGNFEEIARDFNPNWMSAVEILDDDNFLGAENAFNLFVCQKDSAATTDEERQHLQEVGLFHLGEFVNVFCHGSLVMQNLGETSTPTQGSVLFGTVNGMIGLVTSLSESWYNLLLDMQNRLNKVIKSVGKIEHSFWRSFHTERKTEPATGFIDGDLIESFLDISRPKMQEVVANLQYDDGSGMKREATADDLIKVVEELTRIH
T6 sequence (Q13422 whole entry): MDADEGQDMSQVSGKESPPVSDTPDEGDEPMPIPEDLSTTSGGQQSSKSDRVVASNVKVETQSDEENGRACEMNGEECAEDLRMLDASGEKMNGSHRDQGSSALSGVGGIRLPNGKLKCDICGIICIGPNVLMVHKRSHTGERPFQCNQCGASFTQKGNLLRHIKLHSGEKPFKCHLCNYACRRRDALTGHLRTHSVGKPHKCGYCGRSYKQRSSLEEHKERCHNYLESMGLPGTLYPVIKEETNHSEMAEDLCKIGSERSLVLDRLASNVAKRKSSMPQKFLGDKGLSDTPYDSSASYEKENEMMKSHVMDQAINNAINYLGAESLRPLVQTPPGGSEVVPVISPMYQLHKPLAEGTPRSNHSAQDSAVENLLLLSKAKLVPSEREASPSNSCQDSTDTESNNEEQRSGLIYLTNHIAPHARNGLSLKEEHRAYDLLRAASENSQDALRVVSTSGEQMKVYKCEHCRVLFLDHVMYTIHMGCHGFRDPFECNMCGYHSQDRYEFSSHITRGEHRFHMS
T6 sequence (Q96SW2 whole entry): as the sequence (Q96SW2 whole entry) above
T6 sequence (Q16531 whole entry partner): as the sequence (Q16531 whole entry partner) above
T2 sequence (P48729 whole entry): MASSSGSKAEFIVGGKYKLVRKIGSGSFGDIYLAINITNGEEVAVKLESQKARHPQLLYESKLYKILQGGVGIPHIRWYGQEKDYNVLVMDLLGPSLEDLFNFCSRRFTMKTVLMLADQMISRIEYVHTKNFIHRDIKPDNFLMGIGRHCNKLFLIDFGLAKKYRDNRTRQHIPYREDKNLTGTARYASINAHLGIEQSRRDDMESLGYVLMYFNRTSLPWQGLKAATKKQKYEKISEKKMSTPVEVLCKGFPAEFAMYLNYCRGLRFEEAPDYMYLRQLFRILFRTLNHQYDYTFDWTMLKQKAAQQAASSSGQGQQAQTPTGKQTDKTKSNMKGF
T2 sequence (Q96SW2 whole entry): as the sequence (Q96SW2 whole entry) above
T2 sequence (Q16531 whole entry partner): as the sequence (Q16531 whole entry partner) above
T5 sequence (Q9UKT9 whole entry): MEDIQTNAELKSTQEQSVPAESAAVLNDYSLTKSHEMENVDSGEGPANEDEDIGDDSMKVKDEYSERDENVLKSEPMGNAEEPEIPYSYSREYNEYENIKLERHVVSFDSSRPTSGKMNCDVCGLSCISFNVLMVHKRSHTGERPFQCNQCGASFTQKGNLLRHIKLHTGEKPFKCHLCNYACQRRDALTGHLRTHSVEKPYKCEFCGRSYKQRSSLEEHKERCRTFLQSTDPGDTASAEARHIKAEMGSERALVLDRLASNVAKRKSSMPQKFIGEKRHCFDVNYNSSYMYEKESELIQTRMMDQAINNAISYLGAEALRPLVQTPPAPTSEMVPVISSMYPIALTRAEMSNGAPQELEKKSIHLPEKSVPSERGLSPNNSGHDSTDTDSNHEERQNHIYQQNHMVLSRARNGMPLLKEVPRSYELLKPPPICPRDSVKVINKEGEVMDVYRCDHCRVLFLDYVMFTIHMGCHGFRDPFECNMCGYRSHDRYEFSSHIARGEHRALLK
T5 sequence (Q96SW2 whole entry): as the sequence (Q96SW2 whole entry) above
T5 sequence (Q16531 whole entry partner): as the sequence (Q16531 whole entry partner) above
T3 sequence (P15170 whole entry): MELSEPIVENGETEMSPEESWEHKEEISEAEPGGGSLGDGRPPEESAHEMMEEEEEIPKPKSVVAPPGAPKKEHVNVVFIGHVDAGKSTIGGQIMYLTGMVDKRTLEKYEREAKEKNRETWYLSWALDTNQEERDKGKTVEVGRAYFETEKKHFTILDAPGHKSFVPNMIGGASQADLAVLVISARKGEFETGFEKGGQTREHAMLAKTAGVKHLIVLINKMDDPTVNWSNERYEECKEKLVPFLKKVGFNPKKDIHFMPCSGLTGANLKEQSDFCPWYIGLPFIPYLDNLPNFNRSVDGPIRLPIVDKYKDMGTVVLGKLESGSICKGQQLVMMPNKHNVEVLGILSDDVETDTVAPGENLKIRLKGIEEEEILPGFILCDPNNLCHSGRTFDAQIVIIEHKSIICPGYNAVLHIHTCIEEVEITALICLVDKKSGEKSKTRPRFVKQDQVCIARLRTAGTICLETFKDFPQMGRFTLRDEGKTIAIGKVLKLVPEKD
T3 sequence (Q96SW2 whole entry): as the sequence (Q96SW2 whole entry) above
T3 sequence (Q16531 whole entry partner): as the sequence (Q16531 whole entry partner) above

Compound | WEE1 substrate protein remaining % (WEE1) | CK1α substrate protein remaining % (CK1α) | GSPT1 substrate protein remaining % (GSPT1) | IKZF2 substrate protein remaining % (IKZF2) | IKZF3 substrate protein remaining % (IKZF3) | IKZF1 substrate protein remaining % (IKZF1) | IC50 (MM.1S) | inhibition at 0.01 µM (MV-4-11) | inhibition at 0.5 µM (MV-4-11) | inhibition at 0.01 µM (MDA-MB-231) | inhibition at 0.5 µM (MDA-MB-231) | inhibition at 0.01 µM (H292) | inhibition at 0.5 µM (H292)
Cc1ccc(Sc2ccccc2N2CCN(Cc3ccc4c(c3)CN(N3CCC(=O)NC3=O)C4=O)CC2)c(C)c1 [GT-04867, 1-(5-((4-(2-((2,4-dimethylphenyl)thio)phenyl)piperazin-1-yl)methyl)-1-oxoisoindolin-2-yl)dihydropyrimidine-2,4(1H,3H)-dione] | B ("B" is defined as 80%< substrate protein remaining %≤ 100%) | B ("B" is defined as 80%< substrate protein remaining %≤ 100%) | A ("A" is defined as 0% ≤ substrate protein remaining % ≤ 80%) | B ("B" is defined as 80%< substrate protein remaining %≤ 100%) | B ("B" is defined as 80%< substrate protein remaining %≤ 100%) | A ("A" is defined as 0% ≤ substrate protein remaining % ≤ 80%) | 500 to 1000 nM | – | – | – | – | – | –
O=C1CCN(N2Cc3cc(CN4CC=C(c5ccoc5)CC4)ccc3C2=O)C(=O)N1 [GT-04875, 1-(5-((4-(furan-3-yl)-3,6-dihydropyridin-1(2H)-yl)methyl)-1-oxoisoindolin-2-yl)dihydropyrimidine-2,4(1H,3H)-dione] | A ("A" is defined as 0% ≤ substrate protein remaining % ≤ 80%) | B ("B" is defined as 80%< substrate protein remaining %≤ 100%) | A ("A" is defined as 0% ≤ substrate protein remaining % ≤ 80%) | B ("B" is defined as 80%< substrate protein remaining %≤ 100%) | B ("B" is defined as 80%< substrate protein remaining %≤ 100%) | B ("B" is defined as 80%< substrate protein remaining %≤ 100%) | 300 to 500 nM | – | – | – | – | – | –
O=C1CCN(N2Cc3cc(CN4CCN(C(c5ccc(F)cc5)c5ccc(F)cc5)CC4)ccc3C2=O)C(=O)N1 [GT-04894, 1-(5-((4-(bis(4-fluorophenyl)methyl)piperazin-1-yl)methyl)-1-oxoisoindolin-2-yl)dihydropyrimidine-2,4(1H,3H)-dione] | A ("A" is defined as 0% ≤ substrate protein remaining % ≤ 80%) | B ("B" is defined as 80%< substrate protein remaining %≤ 100%) | A ("A" is defined as 0% ≤ substrate protein remaining % ≤ 80%) | A ("A" is defined as 0% ≤ substrate protein remaining % ≤ 80%) | B ("B" is defined as 80%< substrate protein remaining %≤ 100%) | A ("A" is defined as 0% ≤ substrate protein remaining % ≤ 80%) | 500 to 1000 nM | – | – | – | – | – | –
O=C1CCN(N2Cc3cc(CNC45CC6CC(CC(C6)C4)C5)ccc3C2=O)C(=O)N1 [GT-07806, 1-(5-((((3s,5s,7s)-adamantan-1-yl)amino)methyl)-1-oxoisoindolin-2-yl)dihydropyrimidine-2,4(1H,3H)-dione] | – | – | – | – | – | – | – | 5 to 10% | 25 to 30% | 18 to 25% | 18 to 25% | 15 to 20% | 15 to 20%
O=C1CCN(N2C(=O)c3ccc(CN4CC(=C5CCOc6cc(F)ccc65)C4)cc3C2=O)C(=O)N1 [GT-07888, 2-(2,4-dioxotetrahydropyrimidin-1(2H)-yl)-5-((3-(7-fluorochroman-4-ylidene)azetidin-1-yl)methyl)isoindoline-1,3-dione] | – | – | – | – | – | – | – | 40 to 60% | 40 to 60% | 18 to 25% | 18 to 25% | 5 to 10% | 10 to 15%
